Reference: ChEMBL document CHEMBL1152477, “Evaluation of substrate and inhibitor properties of a novel MDR modulator H17 towards transmembrane efflux pumps” (Eur J Med Chem, 2009)

How the values were obtained:
[1] = target: T1, Multidrug resistance-associated protein 1 (Rattus norvegicus, UniProt Q8CG09); assay: Inhibition of MRP1/MRP2 in White Wistar rat ileum assessed as increase in drug uptake at 1 mM after 30 mins by HPLC analysis; format: tissue-based; conditions: 0.5 h, 1000 µM
[2] = target: T1, Multidrug resistance-associated protein 1; assay: Inhibition of MRP1/MRP2 in White Wistar rat colon assessed as increase in drug uptake at 1 mM after 30 mins by HPLC analysis; conditions: 0.5 h, 1000 µM
[3] = target: T1, Multidrug resistance-associated protein 1; assay: Inhibition of MRP1/MRP2 in White Wistar rat jejunum assessed as increase in drug uptake at 1 mM after 30 mins by HPLC analysis; format: tissue-based; conditions: 0.5 h, 1000 µM
Rattus norvegicus [4] = species: Rattus norvegicus; assay: Inhibition of P-glycoprotein in White Wistar rat ileum assessed as permeability at 30 uM after 30 mins by HPLC analysis; format: tissue-based
Rattus norvegicus [5] = species: Rattus norvegicus; assay: Inhibition of P-glycoprotein in White Wistar rat jejunum assessed as permeability at 30 uM after 30 mins by HPLC analysis; format: tissue-based
Rattus norvegicus [6] = species: Rattus norvegicus; assay: Inhibition of P-glycoprotein in White Wistar rat colon assessed as permeability at 30 uM after 30 mins by HPLC analysis

T1 sequence (Q8CG09 whole entry): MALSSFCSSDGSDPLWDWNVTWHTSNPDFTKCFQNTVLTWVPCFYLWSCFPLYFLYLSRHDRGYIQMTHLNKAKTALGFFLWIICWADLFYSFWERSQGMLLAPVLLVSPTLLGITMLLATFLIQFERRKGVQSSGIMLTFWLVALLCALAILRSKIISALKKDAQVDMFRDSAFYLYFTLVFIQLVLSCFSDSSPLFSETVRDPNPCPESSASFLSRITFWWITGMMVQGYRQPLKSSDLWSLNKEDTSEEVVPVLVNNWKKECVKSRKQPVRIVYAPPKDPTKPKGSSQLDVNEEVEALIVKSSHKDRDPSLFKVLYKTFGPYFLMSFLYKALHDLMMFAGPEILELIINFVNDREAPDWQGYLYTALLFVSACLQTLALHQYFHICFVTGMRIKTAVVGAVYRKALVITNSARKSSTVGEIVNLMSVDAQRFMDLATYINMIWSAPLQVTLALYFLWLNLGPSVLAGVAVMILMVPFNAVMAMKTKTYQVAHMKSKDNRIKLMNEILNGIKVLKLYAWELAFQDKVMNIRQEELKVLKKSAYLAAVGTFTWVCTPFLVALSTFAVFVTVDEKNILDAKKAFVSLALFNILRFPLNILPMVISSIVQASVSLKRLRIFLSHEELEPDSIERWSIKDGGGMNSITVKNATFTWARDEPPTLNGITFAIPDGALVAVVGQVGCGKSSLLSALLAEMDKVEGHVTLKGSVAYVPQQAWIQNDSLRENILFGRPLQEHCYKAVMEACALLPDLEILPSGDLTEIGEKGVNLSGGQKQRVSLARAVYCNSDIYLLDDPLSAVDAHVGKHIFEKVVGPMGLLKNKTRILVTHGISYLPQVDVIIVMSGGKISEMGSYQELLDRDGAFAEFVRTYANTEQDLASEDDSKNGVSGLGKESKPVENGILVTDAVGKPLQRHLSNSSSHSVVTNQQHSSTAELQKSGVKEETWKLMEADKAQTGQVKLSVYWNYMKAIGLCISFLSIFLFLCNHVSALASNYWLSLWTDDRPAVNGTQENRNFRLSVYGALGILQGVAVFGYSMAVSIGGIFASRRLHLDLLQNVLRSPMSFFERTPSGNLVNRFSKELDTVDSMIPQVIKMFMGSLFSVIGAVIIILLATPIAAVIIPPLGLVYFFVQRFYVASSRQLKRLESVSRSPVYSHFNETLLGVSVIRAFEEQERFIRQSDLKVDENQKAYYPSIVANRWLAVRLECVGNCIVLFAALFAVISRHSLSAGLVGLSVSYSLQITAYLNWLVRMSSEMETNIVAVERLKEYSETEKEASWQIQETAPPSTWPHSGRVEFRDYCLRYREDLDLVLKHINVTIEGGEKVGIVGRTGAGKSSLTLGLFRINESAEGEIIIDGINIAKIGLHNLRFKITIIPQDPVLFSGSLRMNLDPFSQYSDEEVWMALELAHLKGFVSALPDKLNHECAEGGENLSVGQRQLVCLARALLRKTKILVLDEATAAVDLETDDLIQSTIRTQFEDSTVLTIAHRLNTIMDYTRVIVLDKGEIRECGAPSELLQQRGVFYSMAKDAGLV

Row | Drug uptake [1] [%] | Drug uptake [2] [%] | Drug uptake [3] [%] | permeability (Rattus norvegicus [6]) [×10⁻⁴ cm/s] | SMILES | permeability (Rattus norvegicus [4]) [×10⁻⁴ cm/s] | permeability (Rattus norvegicus [5]) [×10⁻⁴ cm/s]
1 | 13 | 13 | 24 |  | COc1ccc2c(c1)c(CC(=O)O)c(C)n2C(=O)c1ccc(Cl)cc1 [INDOMETHACIN] |  | 
2 |  |  |  | 2.05 | OCC12C3C4C1N(Cc1ccccc1)C1(CO)C(CO)(C4c4ccccc4)C(N3Cc3ccccc3)C1(CO)C2c1ccccc1 (stereo unspecified) | 2.4 | 2.36
